Assays:
[1] = Octanol-water distribution coefficient (logD); format: physicochemical; conditions: determined as previously described [35]
Method: To test the stability, the radiolabeled peptides were incubated with 300× molar excess of cysteine or with PBS at room temperature for 1 h. The octanol-water distribution coefficient (logD) was determined as previously described.

[2] = tested on: PC-3 xenografts; assay: Biodistribution in tumor bearing mice; format: in vivo; conditions: BALB/c nu/nu mice bearing PC-3 xenografts, 3 h pi
Method: Animals: All in vivo experiments were carried out on BALB/c nu/nu or NMRI mice provided by Scanbur A/S (Sollentuna, Sweden). All animal studies were approved by the Ethics Committee for Animal Research in Uppsala (Sweden), following the national legislation on the protection of laboratory animals (project identification code of approval 5/16, 26 February 2016). Prostate cancer xenografts expressing GRPR were established in BALB/c nu/nu mice by subcutaneous injection of PC-3 cell suspension in PBS (7 × 10^6 cells in 100 µL) four weeks before the experiment. Four to seven mice per data point were used in in vivo experiments, two mice per data point were used in metabolic analysis and SPECT/CT imaging experiments.
Biodistribution in tumor bearing mice: The comparison of biodistribution between the two radiolabeled peptides was evaluated in BALB/c nu/nu mice bearing PC-3 xenografts. Each mouse was injected with 40 pmol (30 kBq, mass of injected peptide was adjusted with unlabeled peptide) of either [^99mTc]Tc-maSSS-PEG2-RM26 or [^99mTc]Tc-maSES-PEG2-RM26. The mice were euthanized 3 h pi. Sample collection and activity measurements were done as described above. The biodistribution of [^99mTc]Tc-maSSS-PEG2-RM26 was further studied at 6 h pi following the same protocol. Additionally for [^99mTc]Tc-maSSS-PEG2-RM26, one group of xenograft bearing mice was injected with 40 pmol (30 kBq, mass of injected peptide was adjusted with unlabeled peptide) of labeled peptide with 5 nmol of unlabeled peptide and euthanized 3 h pi.

[3] = 40 pmol (30 kBq), gamma counter, 4-7 mice

logD [1]: -1.0
uptake, Blood [2, 3]: 0.15 ± 0.07 % IA/g
uptake, Bone [2, 3]: 0.04 ± 0.02 % IA/g
uptake, GI (gastrointestinal tract with content) [2, 3]: 46 ± 4 % IA
uptake, Intestine [2, 3]: 1.1 ± 0.6 % IA/g
uptake, Kidneys [2, 3]: 3 ± 2 % IA/g
uptake, Liver [2, 3]: 1.1 ± 0.3 % IA/g
uptake, Lung [2, 3]: 0.14 ± 0.07 % IA/g
uptake, Muscle [2, 3]: 0.04 ± 0.03 % IA/g
uptake, Pancreas [2, 3]: 2 ± 1 % IA/g
uptake, Spleen [2, 3]: 0.11 ± 0.02 % IA/g
uptake, Stomach [2, 3]: 0.9 ± 0.4 % IA/g
uptake, Tumor [2, 3]: 2.9 ± 0.7 % IA/g
Tumor-to-non-tumor ratio, Blood ([2]; 40 pmol): 26 ± 19
Tumor-to-non-tumor ratio, Bone ([2]; 40 pmol): 84 ± 54
Tumor-to-non-tumor ratio, Intestine ([2]; 40 pmol): 3 ± 2
Tumor-to-non-tumor ratio, Kidneys ([2]; 40 pmol): 2 ± 2
Tumor-to-non-tumor ratio, Liver ([2]; 40 pmol): 3.0 ± 0.8
Tumor-to-non-tumor ratio, Lung ([2]; 40 pmol): 26 ± 16
Tumor-to-non-tumor ratio, Muscle ([2]; 40 pmol): 90 ± 52
Tumor-to-non-tumor ratio, Pancreas ([2]; 40 pmol): 1.5 ± 0.8
Tumor-to-non-tumor ratio, Spleen ([2]; 40 pmol): 24 ± 10
Tumor-to-non-tumor ratio, Stomach ([2]; 40 pmol): 4 ± 2
Structure (SMILES): CC(C)C[C@H](NC(=O)C[C@H](O)[C@H](CC(C)C)NC(=O)[C@H](Cc1c[nH]cn1)NC(=O)CNC(=O)[C@@H](NC(=O)[C@H](C)NC(=O)[C@H](Cc1c[nH]c2ccccc12)NC(=O)[C@H](CCC(N)=O)NC(=O)[C@@H](Cc1ccccc1)NC(=O)COCCOCCNC(=O)[C@H](CO)NC(=O)[C@H](CCC(=O)O)NC(=O)[C@H](CO)NC(=O)CS)C(C)C)C(N)=O [[^99mTc]Tc-maSES-PEG2-RM26, metal not drawn]

Source: paper PMC7912279, “Preclinical Evaluation of ^99mTc-Labeled GRPR Antagonists maSSS/SES-PEG2-RM26 for Imaging of Prostate Cancer” (Pharmaceutics, 2021)
